Assay results taken from PubChem BioAssay AID330 (DTP/NCI, 2004).
Values joined by “and” are separate entries in the source; they are usually repeats but may differ in a detail not shown here. Equal values may be shown once. Toxic doses and inconclusive results are not listed. The calls were made as follows: active = survival T/C of 150% or more; inactive = T/C below 125% in these data.

Test system: P388 leukemia ip, CD2F1 mice, survival T/C
Assay: NCI In Vivo Anticancer Drug Screen. Data for tumor model P388 Leukemia (intraperitoneal) in CD2F1 (CDF1) mice
Settings: endpoint: median survival time, higher = longer survival
Outline: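 Mice carrying the transplanted tumor received test compound or vehicle. Survival was recorded in each group, and the value is the treated-group measurement divided by that of the vehicle-treated control group.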

[1] = dose: 50.0 mg/kg/injection, schedule: Q01DX009 (ip), vehicle: saline with Tween-80
[2] = dose: 100.0 mg/kg/injection, schedule: Q01DX009 (ip), vehicle: saline with Tween-80
[3] = dose: 200.0 mg/kg/injection, schedule: Q01DX009 (ip), vehicle: saline with Tween-80
[4] = dose: 100.0 mg/kg/injection, schedule: Q01DX001 (ip), vehicle: Klucel (hydroxypropylcellulose) (HPC)
[5] = dose: 200.0 mg/kg/injection, schedule: Q01DX001 (ip), vehicle: Klucel (hydroxypropylcellulose) (HPC)
[6] = dose: 400.0 mg/kg/injection, schedule: Q01DX001 (ip), vehicle: Klucel (hydroxypropylcellulose) (HPC)

Measured: T/C

S=c1nn[nH]n1-c1ccccc1.[Cd]
inactive: dose: 3.13 mg/kg/injection, schedule: Q01DX009 (ip), vehicle: saline with Tween-80 98 % of control | dose: 6.25 mg/kg/injection, schedule: Q01DX009 (ip), vehicle: saline with Tween-80 94 % of control

CC(=O)Oc1ccc(C2c3cc(OC(C)=O)c(OC(C)=O)cc3CC3C(=O)OCC32)cc1OC(C)=O (stereo not given)
inactive: dose: 50.0 mg/kg/injection, schedule: Q01DX005 (ip), vehicle: distilled water + alcohol 102 % of control | dose: 100.0 mg/kg/injection, schedule: Q01DX005 (ip), vehicle: distilled water + alcohol 96 % of control | dose: 200.0 mg/kg/injection, schedule: Q01DX005 (ip), vehicle: distilled water + alcohol 100 % of control

Cc1ccc(N=C(Cl)Nc2ccc(C)cc2)cc1
inactive: [1] 105 % of control | [2] 108 % of control | [3] 98 % of control

OCCO
inactive: dose: 100.0 mg/kg/injection, schedule: Q01DX009 (ip), vehicle: saline 86 % of control and 90 % of control | dose: 200.0 mg/kg/injection, schedule: Q01DX009 (ip), vehicle: saline 100 % of control and 86 % of control | dose: 400.0 mg/kg/injection, schedule: Q01DX009 (ip), vehicle: saline 104 % of control and 100 % of control | dose: 0.5 % in 0.5 ml injection vol, schedule: Q01DX009 (ip), vehicle: water 98 % of control | dose: 1.0 % in 0.5 ml injection vol, schedule: Q01DX009 (ip), vehicle: water 99 % of control and 107 % of control | dose: 2.0 % in 0.5 ml injection vol, schedule: Q01DX009 (ip), vehicle: water 100 % of control and 102 % of control | dose: 2.5 % in 0.5 ml injection vol, schedule: Q01DX009 (ip), vehicle: water 106 % of control | dose: 4.0 % in 0.5 ml injection vol, schedule: Q01DX009 (ip), vehicle: water 94 % of control | dose: 5.0 % in 0.5 ml injection vol, schedule: Q01DX009 (ip), vehicle: water 105 % of control | dose: 10.0 % in 0.5 ml injection vol, schedule: Q01DX009 (ip), vehicle: water 103 % of control | dose: 20.0 % in 0.5 ml injection vol, schedule: Q01DX009 (ip), vehicle: water 108 % of control | dose: 40.0 % in 0.5 ml injection vol, schedule: Q01DX009 (ip), vehicle: water 100 % of control | dose: 50.0 % in 0.5 ml injection vol, schedule: Q01DX009 (ip), vehicle: water 107 % of control | dose: 80.0 % in 0.5 ml injection vol, schedule: Q01DX009 (ip), vehicle: water 100 % of control

CCC(=O)n1c(Cl)c(C=O)c2ccccc21
inactive: [4] 99 % of control | [5] 102 % of control | [6] 94 % of control

CN(C)Cc1c(N=Nc2ccc3ccc4cccc5ccc2c3c45)[nH]c2ccccc12
inactive: [1] 103 % of control | [2] 115 % of control | [3] 115 % of control

CC(=O)CC(C)=NCC(C)N=C(C)CC(C)=O.c1cc[c]([Sn][c]2ccccc2)cc1 (stereo not given)
active: dose: 2.5 mg/kg/injection, schedule: Q01DX009 (ip), vehicle: saline 154 % of control | dose: 5.0 mg/kg/injection, schedule: Q01DX009 (ip), vehicle: saline 158 % of control and 162 % of control | dose: 10.0 mg/kg/injection, schedule: Q01DX009 (ip), vehicle: saline 185 % of control

C=C(Cl)C(=NC(C)(C)C)Nc1ccc(C(=O)OCC)cc1
inactive: dose: 50.0 mg/kg/injection, schedule: Q01DX005 (ip), vehicle: Klucel (hydroxypropylcellulose) (HPC) 103 % of control | dose: 100.0 mg/kg/injection, schedule: Q01DX005 (ip), vehicle: Klucel (hydroxypropylcellulose) (HPC) 100 % of control | dose: 200.0 mg/kg/injection, schedule: Q01DX005 (ip), vehicle: Klucel (hydroxypropylcellulose) (HPC) 118 % of control

CNC(=O)CCC(NS(=O)(=O)c1ccc(NC(C)=O)cc1)C(=O)O (stereo not given)
inactive: [4] 105 % of control | [5] 98 % of control | [6] 100 % of control

Cc1ccc(S(=O)(=O)OCCC(C)(C)C)cc1
inactive: [1] 106 % of control | [2] 107 % of control | [3] 111 % of control
